The results in this text go back to PubChem BioAssay AID328 (DTP/NCI, 2004).

Molecules are shown by their SMILES. Values joined by “and” are separate entries in the source; they are usually repeats but may differ in a detail not shown here. Identical values can stand only once. Inconclusive results and toxic doses are left out.

This test deals with BDF1 mice, P388 leukemia ip, median survival T/C. The test is described as follows: NCI In Vivo Anticancer Drug Screen. Data for tumor model P388 Leukemia (intraperitoneal) in B6D2F1 (BDF1) mice. The conditions noted are these: endpoint: median survival time, higher = longer survival. In a few lines: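 Mice carrying the transplantable tumour receive compound or vehicle. Survival is followed in each arm, and the treated measure is divided by the vehicle measure.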

[1] abbreviates: dose: 0.37 mg/kg/injection, schedule: Q01DX009 (ip), vehicle: saline.
Setting [2] is: dose: 0.75 mg/kg/injection, schedule: Q01DX009 (ip), vehicle: saline.
The mark [3] stands for this setting: dose: 12.5 mg/kg/injection, schedule: Q01DX009 (ip), vehicle: saline with Tween-80.
[4] abbreviates: dose: 25.0 mg/kg/injection, schedule: Q01DX009 (ip), vehicle: saline with Tween-80.
[5] abbreviates: dose: 50.0 mg/kg/injection, schedule: Q01DX009 (ip), vehicle: saline with Tween-80.
Setting [6] is: dose: 100.0 mg/kg/injection, schedule: Q01DX009 (ip), vehicle: saline with Tween-80.
The mark [7] stands for this setting: dose: 10.0 mg/kg/injection, schedule: Q01DX009 (ip), vehicle: saline with Tween-80.

As to `CC(=O)c1ccc(NC(=O)N(CCCl)N=O)cc1`, the T/C by setting is: (dose: 0.29 mg/kg/injection, schedule: Q04DX003 (ip), vehicle: Klucel (hydroxypropylcellulose) (HPC)) 118 % of control; (dose: 0.43 mg/kg/injection, schedule: Q04DX003 (ip), vehicle: Klucel (hydroxypropylcellulose) (HPC)) 113 % of control; (dose: 0.99 mg/kg/injection, schedule: Q04DX003 (ip), vehicle: saline) 150 % of control; (dose: 18.75 mg/kg/injection, schedule: Q04DX003 (ip), vehicle: Klucel (hydroxypropylcellulose) (HPC)) 218 % of control; (dose: 24.75 mg/kg/injection, schedule: Q04DX003 (ip), vehicle: Klucel (hydroxypropylcellulose) (HPC)) 204 % of control; (dose: 37.5 mg/kg/injection, schedule: Q04DX003 (ip), vehicle: Klucel (hydroxypropylcellulose) (HPC)) 236 % of control and 90 % of control. Moreover, the T/C was 109 % of control (dose: 56.25 mg/kg/injection, schedule: Q04DX003 (ip), vehicle: Klucel (hydroxypropylcellulose) (HPC)) and 122 % of control (dose: 75.0 mg/kg/injection, schedule: Q04DX003 (ip), vehicle: Klucel (hydroxypropylcellulose) (HPC)).
`COC(=O)NC1=C(N2CC2)C(=O)C(NC(=O)OC)=C(N2CC2)C1=O`: the T/C is 242 % of control and 222 % of control under setting [1]; 252 % of control and 270 % of control under setting [2].
Turning to `O=[N+]([O-])c1ccc(/C=N\Nc2ccc([N+](=O)[O-])cn2)cc1`, the T/C is 110 % of control under setting [3]; 120 % of control under setting [4]; 120 % of control under setting [5]; 90 % of control under setting [6]; 100 % of control (dose: 100.0 mg/kg/injection, schedule: Q04DX003 (ip), vehicle: saline sonified); 90 % of control (dose: 200.0 mg/kg/injection, schedule: Q01DX009 (ip), vehicle: saline with Tween-80). Also, the T/C reads like this: (dose: 200.0 mg/kg/injection, schedule: Q04DX003 (ip), vehicle: saline sonified) 110 % of control; (dose: 400.0 mg/kg/injection, schedule: Q04DX003 (ip), vehicle: saline sonified) 120 % of control.
As for `COc1cccc(S(=O)(=O)c2ccc([N+](=O)[O-])c3nonc23)c1`, the T/C runs as follows: under setting [3], 111 % of control; under setting [4], 111 % of control.
For `CC(C)=CCNc1ncnc2nc[nH]c12`, the T/C reads like this: under setting [7], 104 % of control; (dose: 20.0 mg/kg/injection, schedule: Q01DX009 (ip), vehicle: saline with Tween-80) 104 % of control; (dose: 20.0 mg/kg/injection, schedule: Q04DX003 (ip), vehicle: saline with Tween-80) 95 % of control; (dose: 40.0 mg/kg/injection, schedule: Q04DX003 (ip), vehicle: saline with Tween-80) 95 % of control; (dose: 80.0 mg/kg/injection, schedule: Q04DX003 (ip), vehicle: saline with Tween-80) 100 % of control.
For `CCCCCCCCCCCCCCSCCSCCSCCCCCCCCCCCCCC`, the T/C is 86 % of control (dose: 25.0 mg/kg/injection, schedule: Q01DX001 (ip), vehicle: saline sonified) and 86 % of control (dose: 100.0 mg/kg/injection, schedule: Q01DX001 (ip), vehicle: saline sonified).
`C=CCSc1ncnc2c1ncn2C1OC(CO)C(O)C1O` (stereo unspecified): the T/C under setting [6] was 113 % of control.
Turning to `OCCN1CCOCC1`, the T/C by setting is: (dose: 100.0 mg/kg/injection, schedule: Q01DX009 (ip), vehicle: saline) 109 % of control; (dose: 200.0 mg/kg/injection, schedule: Q01DX009 (ip), vehicle: saline) 109 % of control; (dose: 400.0 mg/kg/injection, schedule: Q01DX009 (ip), vehicle: saline) 109 % of control.
On to `CCN(CC)Cc1c(C)[nH]c2ccc(N(C)C)cc2c1=O`, for which the T/C by setting is: (dose: 1.56 mg/kg/injection, schedule: Q01DX009 (ip), vehicle: water) 86 % of control and 110 % of control; (dose: 3.12 mg/kg/injection, schedule: Q01DX009 (ip), vehicle: water) 89 % of control and 100 % of control; (dose: 6.25 mg/kg/injection, schedule: Q01DX009 (ip), vehicle: water) 89 % of control; (dose: 12.5 mg/kg/injection, schedule: Q01DX009 (ip), vehicle: Klucel (hydroxypropylcellulose) (HPC)) 99 % of control; (dose: 12.5 mg/kg/injection, schedule: Q01DX009 (ip), vehicle: water) 120 % of control; (dose: 25.0 mg/kg/injection, schedule: Q01DX009 (ip), vehicle: Klucel (hydroxypropylcellulose) (HPC)) 108 % of control. Besides, the T/C was 111 % of control (dose: 25.0 mg/kg/injection, schedule: Q04DX003 (ip), vehicle: saline); 99 % of control (dose: 50.0 mg/kg/injection, schedule: Q01DX009 (ip), vehicle: Klucel (hydroxypropylcellulose) (HPC)); 112 % of control (dose: 50.0 mg/kg/injection, schedule: Q04DX003 (ip), vehicle: saline); 104 % of control (dose: 100.0 mg/kg/injection, schedule: Q04DX003 (ip), vehicle: saline); 106 % of control (dose: 200.0 mg/kg/injection, schedule: Q01DX009 (ip), vehicle: Klucel (hydroxypropylcellulose) (HPC)).
For `COc1cc2ccc(CC(=O)NCCc3ccc4c(c3)OCO4)cc2cc1OC`, the T/C (dose: 100.0 mg/kg/injection, schedule: Q04DX003 (ip), vehicle: Klucel (hydroxypropylcellulose) (HPC)) was 100 % of control; the T/C (dose: 200.0 mg/kg/injection, schedule: Q04DX003 (ip), vehicle: Klucel (hydroxypropylcellulose) (HPC)) is 90 % of control; the T/C (dose: 400.0 mg/kg/injection, schedule: Q04DX003 (ip), vehicle: Klucel (hydroxypropylcellulose) (HPC)) was 90 % of control.
For the molecule `O=C(Nc1ccc(C2=NCCCN2)cc1)c1ccc(C(=O)Nc2ccc(C3=NCCCN3)cc2)nc1`, the T/C by setting is: (dose: 0.85 mg/kg/injection, schedule: Q01DX009 (ip), vehicle: saline) 92 % of control; (dose: 1.3 mg/kg/injection, schedule: Q01DX009 (ip), vehicle: saline) 103 % of control; (dose: 3.0 mg/kg/injection, schedule: Q01DX009 (ip), vehicle: saline) 155 % of control; (dose: 5.0 mg/kg/injection, schedule: Q01DX009 (ip), vehicle: saline) 175 % of control; (dose: 8.0 mg/kg/injection, schedule: Q01DX009 (ip), vehicle: saline) 195 % of control; under setting [7], 122 % of control. The T/C was 153 % of control (dose: 12.0 mg/kg/injection, schedule: Q01DX009 (ip), vehicle: saline); 115 % of control (dose: 12.5 mg/kg/injection, schedule: Q04DX003 (ip), vehicle: saline); 118 % of control (dose: 16.5 mg/kg/injection, schedule: Q04DX003 (ip), vehicle: saline); 226 % of control (dose: 18.0 mg/kg/injection, schedule: Q01DX009 (ip), vehicle: saline); 196 % of control (dose: 25.0 mg/kg/injection, schedule: Q01DX009 (ip), vehicle: saline).
In the case of `C=CCCCCCCCCC(=O)NCCN1CCOCC1`, the T/C was 104 % of control under setting [5] and 100 % of control under setting [6].
As to `Cc1c(CNc2ccc(C(=O)NC(CC(=O)O)CC(=O)O)cc2)ccc2nc(N)nc(N)c12`, the T/C is 165 % of control (dose: 0.19 mg/kg/injection, schedule: Q01DX009 (ip), vehicle: saline); 215 % of control under setting [1]; 100 % of control under setting [2]; 95 % of control (dose: 1.5 mg/kg/injection, schedule: Q01DX009 (ip), vehicle: saline); 110 % of control (dose: 2.0 mg/kg/injection, schedule: Q01DX009 (ip), vehicle: saline).
Regarding `c1ccc(CC(Cc2ccccc2)NC2=NCCO2)cc1`, the T/C by setting is: (dose: 6.25 mg/kg/injection, schedule: Q04DX003 (ip), vehicle: saline with Tween-80) 100 % of control; (dose: 12.5 mg/kg/injection, schedule: Q04DX003 (ip), vehicle: saline with Tween-80) 100 % of control; (dose: 25.0 mg/kg/injection, schedule: Q04DX003 (ip), vehicle: saline with Tween-80) 100 % of control.
